# Data published in patent publication US11739100B2, “2,3-dihydro-1h-imidazo{1,2-a}pyrimidin-5-one and this 1,2,3,4-tetrahydropyrimido{1,2-a}pyrimidin-6-one derivatives comprising a substituted morpholine, preparation thereof and pharmaceutical use thereof” (SANOFI, priority 2012, dated 2023).
# pIC50: −log10 of the molar value.
# Target: T1, recombinant Vps34 (Homo sapiens, UniProt Q8NEB9)
# T1 construct: purchased Invitrogen PV5126
# Assay: Phosphorylation of phosphatidylinositol (PI) by Vps34 in vitro, ADP detected by TR-FRET (HTRF Transcreener ADP)
# Type: biochemical
# Conditions: 10 μM ATP, 55 μg/ml PI, approximately 3 nM Vps34, 1 hour at ambient temperature; absolute IC50, mean of two independent experiments; read-out: IC50 activity range
# T1 sequence (Q8NEB9 whole entry): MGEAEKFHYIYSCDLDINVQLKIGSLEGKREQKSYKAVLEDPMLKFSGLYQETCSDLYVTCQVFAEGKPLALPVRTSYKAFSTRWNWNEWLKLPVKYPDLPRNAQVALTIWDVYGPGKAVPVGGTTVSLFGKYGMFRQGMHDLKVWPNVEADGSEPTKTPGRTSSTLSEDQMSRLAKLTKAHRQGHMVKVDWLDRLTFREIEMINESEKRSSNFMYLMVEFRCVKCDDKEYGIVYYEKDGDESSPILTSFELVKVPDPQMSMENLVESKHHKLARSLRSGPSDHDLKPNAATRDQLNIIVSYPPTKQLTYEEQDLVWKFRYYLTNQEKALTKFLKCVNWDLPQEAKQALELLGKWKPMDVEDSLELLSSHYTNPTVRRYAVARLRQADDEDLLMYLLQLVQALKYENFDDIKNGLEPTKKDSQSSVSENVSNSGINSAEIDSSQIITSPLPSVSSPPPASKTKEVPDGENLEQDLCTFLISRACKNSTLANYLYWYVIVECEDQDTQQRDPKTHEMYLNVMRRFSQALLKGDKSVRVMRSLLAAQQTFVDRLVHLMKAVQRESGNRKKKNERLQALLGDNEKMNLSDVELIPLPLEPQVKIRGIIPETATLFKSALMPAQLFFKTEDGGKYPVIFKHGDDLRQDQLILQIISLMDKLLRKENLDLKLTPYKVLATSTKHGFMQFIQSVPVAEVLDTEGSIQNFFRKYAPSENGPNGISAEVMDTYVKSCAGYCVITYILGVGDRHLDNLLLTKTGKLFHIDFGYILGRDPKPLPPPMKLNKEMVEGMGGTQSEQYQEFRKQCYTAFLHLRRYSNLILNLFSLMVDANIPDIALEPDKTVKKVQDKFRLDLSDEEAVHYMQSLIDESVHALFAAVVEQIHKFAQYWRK
row,pIC50,SMILES
1,> 8.00,"C[C@@H]1COCCN1c1cc(=O)n2c(n1)N(Cc1ccnc(Cl)c1)CC[C@@H]2C(F)(F)F [Example 112, (R)-9-(2-Chloro-pyridin-4-ylmethyl)-2-((R)-3-methyl-morpholin-4-yl)-6-trifluoromethyl-6,7,8,9-tetrahydro-pyrimido[1,2-a]-pyrimidin-4-one]"
2,7.00 to 8.00,"C[C@@H]1COCCN1c1cc(=O)n2c(n1)N(CC(C)(C)O)CC[C@@H]2C(F)(F)F [Example 113, (R)-9-(2-Hydroxy-2-methylpropyl)-2-((R)-3-methylmorpholin-4-yl)-6-trifluoromethyl-6,7,8,9-tetrahydro-pyrimido[1,2-a]-pyrimidin-4-one]"
3,> 8.00,"CC(C)Oc1cc(N2CC[C@H](C(F)(F)F)n3c2nc(N2CCOC[C@H]2C)cc3=O)ccn1 [Example 114, (R)-9-(2-Isopropoxy-pyridin-4-yl)-2-((R)-3-methylmorpholin-4-yl)-6-trifluoromethyl-6,7,8,9-tetrahydro-pyrimido[1,2-a]-pyrimidin-4-one]"
4,> 8.00,"C[C@@H]1COCCN1c1cc(=O)n2c(n1)N(Cc1ccc(Cl)nc1)CC[C@@H]2C(F)(F)F [Example 115, (R)-9-(6-Chloro-pyridin-3-ylmethyl)-2-((R)-3-methyl-morpholin-4-yl)-6-trifluoromethyl-6,7,8,9-tetrahydro-pyrimido[1,2-a]-pyrimidin-4-one]"
5,> 8.00,"CC(C)Oc1ccc(N2CC[C@H](C(F)(F)F)n3c2nc(N2CCOC[C@H]2C)cc3=O)cn1 [Example 116, (R)-9-(6-Isopropoxy-pyridin-3-yl)-2-((R)-3-methylmorpholin-4-yl)-6-trifluoromethyl-6,7,8,9-tetrahydro-pyrimido[1,2-a]-pyrimidin-4-one]"
6,7.00 to 8.00,"C[C@@H]1COCCN1c1cc(=O)n2c(n1)N(Cc1cnco1)CC[C@@H]2C(F)(F)F [Example 117, (R)-2-((R)-3-Methyl-morpholin-4-yl)-9-oxazol-5-ylmethyl-6-trifluoromethyl-6,7,8,9-tetrahydro-pyrimido[1,2-a]-pyrimidin-4-one]"
7,> 8.00,"C[C@@H]1COCCN1c1cc(=O)n2c(n1)N(CC(=O)C1CC1)CC[C@@H]2C(F)(F)F [Example 118, (R)-9-(2-Cyclopropyl-2-oxoethyl)-2-((R)-3-methylmorpholin-4-yl)-6-trifluoromethyl-6,7,8,9-tetrahydro-pyrimido[1,2-a]-pyrimidin-4-one]"
8,> 8.00,"COc1cc(N2CC[C@H](C(F)(F)F)n3c2nc(N2CCOC[C@H]2C)c(F)c3=O)ccn1 [Example 119, (R)-3-Fluoro-9-(2-methoxypyridin-4-yl)-2-((R)-3-methyl-morpholin-4-yl)-6-trifluoromethyl-6,7,8,9-tetrahydro-pyrimido[1,2-a]-pyrimidin-4-one]"
9,> 8.00,"C[C@@H]1COCCN1c1nc2n(c(=O)c1F)[C@@H](C(F)(F)F)CCN2CC(=O)C1CC1 [Example 120, (R)-9-(2-Cyclopropyl-2-oxoethyl)-3-fluoro-2-((R)-3-methyl-morpholin-4-yl)-6-trifluoromethyl-6,7,8,9-tetrahydro-pyrimido[1,2-a]-pyrimidin-4-one]"
10,> 8.00,"C[C@@H]1COCCN1c1nc2n(c(=O)c1F)[C@@H](C(F)(F)F)CCN2c1ccc(C(F)F)nc1 [Example 121, (R)-9-(6-Difluoromethylpyridin-3-yl)-3-fluoro-2-((R)-3-methylmorpholin-4-yl)-6-trifluoromethyl-6,7,8,9-tetrahydro-pyrimido[1,2-a]-pyrimidin-4-one]"
11,> 8.00,"C[C@@H]1COCCN1c1nc2n(c(=O)c1F)[C@@H](C(F)(F)F)CCN2c1ccnc(Cl)c1 [Example 122, (R)-9-(2-Chloro-pyridin-4-yl)-3-fluoro-2-((R)-3-methyl-morpholin-4-yl)-6-trifluoromethyl-6,7,8,9-tetrahydro-pyrimido[1,2-a]-pyrimidin-4-one]"
12,7.00 to 8.00,"Cc1nnc(CN2c3nc(N4CCOC[C@H]4C)cc(=O)n3CC[C@H]2C(F)(F)F)s1 [Example 123, (S)-2-((R)-3-Methyl-morpholin-4-yl)-9-(5-methyl-[1,3,4]thiadiazol-2-yl-methyl)-8-trifluoromethyl-6,7,8,9-tetrahydro-pyrimido[1,2-a]-pyrimidin-4-one]"
13,> 8.00,"C[C@@H]1COCCN1c1cc(=O)n2c(n1)N(c1ccc(OC(F)F)nc1)[C@H](C(F)(F)F)CC2 [Example 124, (S)-9-(6-Difluoromethoxy-pyridin-3-yl)-2-((R)-3-methylmorpholin-4-yl)-8-trifluoromethyl-6,7,8,9-tetrahydro-pyrimido[1,2-a]-pyrimidin-4-one]"
14,7.00 to 8.00,"Cc1nnsc1CN1c2nc(N3CCOC[C@H]3C)cc(=O)n2CC[C@H]1C(F)(F)F [Example 125, (S)-2-((R)-3-Methyl-morpholin-4-yl)-9-(4-methyl-[1,2,3]thiadiazol-5-yl-methyl)-8-trifluoromethyl-6,7,8,9-tetrahydro-pyrimido[1,2-a]-pyrimidin-4-one]"
15,> 8.00,"C[C@@H]1COCCN1c1nc2n(c(=O)c1F)[C@@H](C(F)(F)F)CCN2CC(=O)c1cccnc1 [Example 126, (R)-3-Fluoro-2-((R)-3-methylmorpholin-4-yl)-9-(2-oxo-2-pyridin-3-ylethyl)-6-trifluoromethyl-6,7,8,9-tetrahydro-pyrimido[1,2-a]-pyrimidin-4-one]"
16,> 8.00,"C[C@@H]1COCCN1c1nc2n(c(=O)c1F)[C@@H](C(F)(F)F)CCN2c1ccc(OC(F)F)nc1 [Example 127, (R)-9-(6-Difluoromethoxy-pyridin-3-yl)-3-fluoro-2-((R)-3-methyl-morpholin-4-yl)-6-trifluoromethyl-6,7,8,9-tetrahydro-pyrimido[1,2-a]-pyrimidin-4-one]"
17,> 8.00,"CC(C)C(=O)CN1CC[C@H](C(F)(F)F)n2c1nc(N1CCOC[C@H]1C)c(F)c2=O [Example 128, (R)-3-Fluoro-2-((R)-3-methylmorpholin-4-yl)-9-(3-methyl-2-oxo-butyl)-6-trifluoromethyl-6,7,8,9-tetrahydro-pyrimido[1,2-a]-pyrimidin-4-one]"
18,> 8.00,"C[C@@H]1COCCN1c1nc2n(c(=O)c1F)[C@@H](C(F)(F)F)CCN2Cc1ncco1 [Example 129, (R)-3-Fluoro-2-((R)-3-methylmorpholin-4-yl)-9-oxazol-2-ylmethyl-6-trifluoromethyl-6,7,8,9-tetrahydro-pyrimido[1,2-a]-pyrimidin-4-one]"
19,> 8.00,"CC(C)C(=O)CN1CC[C@H](C(F)(F)F)n2c1nc(N1CCOC[C@H]1C)cc2=O [Example 130, (R)-2-((R)-3-Methyl-morpholin-4-yl)-9-(3-methyl-2-oxobutyl)-6-trifluoromethyl-6,7,8,9-tetrahydro-pyrimido[1,2-a]-pyrimidin-4-one]"
20,> 8.00,"C[C@@H]1COCCN1c1cc(=O)n2c(n1)N(CC(=O)C1CCOCC1)CC[C@@H]2C(F)(F)F [Example 131, (R)-2-((R)-3-Methyl-morpholin-4-yl)-9-[2-oxo-2-(tetrahydro-pyran-4-yl)ethyl]-6-trifluoromethyl-6,7,8,9-tetrahydro-pyrimido[1,2-a]-pyrimidin-4-one]"
21,> 8.00,"C[C@@H]1COCCN1c1nc2n(c(=O)c1F)[C@@H](C(F)(F)F)CCN2CC(=O)C1CCOCC1 [Example 132, (R)-3-Fluoro-2-((R)-3-methylmorpholin-4-yl)-9-[2-oxo-2-(tetrahydro-pyran-4-yl)ethyl]-6-trifluoromethyl-6,7,8,9-tetrahydro-pyrimido[1,2-a]-pyrimidin-4-one]"
22,> 8.00,"C[C@@H]1COCCN1c1cc(=O)n2c(n1)N(CC1COC1)[C@H](C(F)(F)F)CC2 [Example 133, (S)-2-((R)-3-Methyl-morpholin-4-yl)-9-oxetan-3-ylmethyl-8-trifluoromethyl-6,7,8,9-tetrahydro-pyrimido[1,2-a]-pyrimidin-4-one]"
23,> 8.00,"C[C@@H]1COCCN1c1cc(=O)n2c(n1)N(c1ccc(C(F)F)nc1)C(C(F)(F)F)CC2 (stereo partly drawn) [Example 134, 9-(6-Difluoromethyl-pyridin-3-yl)-2-((R)-3-methylmorpholin-4-yl)-8-trifluoromethyl-6,7,8,9-tetrahydro-pyrimido[1,2-a]-pyrimidin-4-one]"
24,> 8.00,"C[C@@H]1COCCN1c1nc2n(c(=O)c1F)[C@@H](C(F)(F)F)CCN2CC(=O)c1ccccn1 [Example 135, (R)-3-Fluoro-2-((R)-3-methylmorpholin-4-yl)-9-(2-oxo-2-pyridin-2-ylethyl)-6-trifluoromethyl-6,7,8,9-tetrahydro-pyrimido[1,2-a]-pyrimidin-4-one]"
25,> 8.00,"C[C@@H]1COCCN1c1cc(=O)n2c(n1)N(Cc1nnc(C(F)(F)F)o1)[C@H](C(F)(F)F)CC2 [Example 140, (S)-2-((R)-3-Methyl-morpholin-4-yl)-8-trifluoromethyl-9-(5-trifluoromethyl-[1,3,4]oxadiazol-2-yl-methyl)-6,7,8,9-tetrahydro-pyrimido[1,2-a]-pyrimidin-4-one]"
26,> 8.00,"C[C@@H]1COCCN1c1cc(=O)n2c(n1)N(CC(=O)c1cccnc1)CC[C@@H]2C(F)(F)F [Example 141, (R)-2-((R)-3-Methyl-morpholin-4-yl)-9-(2-oxo-2-pyridin-3-yl-ethyl)-6-trifluoromethyl-6,7,8,9-tetrahydro-pyrimido[1,2-a]-pyrimidin-4-one]"
27,> 8.00,"C[C@@H]1COCCN1c1cc(=O)n2c(n1)N(Cc1nnc(C3CC3)o1)[C@H](C(F)(F)F)CC2 [Example 142, (S)-9-(5-Cyclopropyl-[1,3,4]oxadiazol-2-yl-methyl)-2-((R)-3-methylmorpholin-4-yl)-8-trifluoromethyl-6,7,8,9-tetrahydro-pyrimido[1,2-a]-pyrimidin-4-one]"
28,> 8.00,"Cc1nocc1CN1CC[C@H](C(F)(F)F)n2c1nc(N1CCOC[C@H]1C)cc2=O [Example 143, (R)-9-(3-Methyl-isoxazol-4-ylmethyl)-2-((R)-3-methyl-morpholin-4-yl)-6-trifluoromethyl-6,7,8,9-tetrahydro-pyrimido[1,2-a]-pyrimidin-4-one]"
29,> 8.00,"C[C@@H]1COCCN1c1cc(=O)n2c(n1)N(Cc1nc(C(F)(F)F)no1)CC[C@@H]2C(F)(F)F [Example 144, (R)-2-((R)-3-Methyl-morpholin-4-yl)-6-trifluoromethyl-9-(3-trifluoromethyl-[1,2,4]oxadiazol-5-yl-methyl)-6,7,8,9-tetrahydro-pyrimido[1,2-a]-pyrimidin-4-one]"
